Measured values published in patent publication US6440710B1, “Antibody-catalyzed deuteration, tritiation, dedeuteration or detritiation of carbonyl compounds” (The Scripps Research Institute, priority 1998, dated 2002).

System: antibody 38C2
Assay: antibody 38C2-catalyzed deuterium exchange (deuteration) of ketones and aldehydes in D2O, kinetics by GCMS or 1H-NMR
Assay type: biochemical
Details: for kcat / Km: 38C2-catalyzed deuteration, D2O, pD 7.4, 25° C.; for kcat: per exchange of one hydrogen atom; for Km: Lineweaver-Burk analysis (GCMS); for kcat/kun: rate enhancement over uncatalyzed background reaction (followed 5 months at 25° C.)
Protocol: Series of reactions were carried out in a 0.1 ml solution containing the appropriate concentration of the carbonyl substrate and antibody 38C2(1.33 μM in the case of cycloheptanone and heptanal, 2.67 μM in the case of 2-heptanone) which was previously dialyzed three times against 0.1 M NaCl in D2O. The reaction mixtures were kept at 25° C. for 10 minutes and then quenched with dichloromethane. The organic layer was separated and analyzed by GCMS (Chemical Ionization) where the different isotopic masses were monitored and integrated. All kinetic parameters are calculated per exchange of one deuterium atom. No background reactions could be detected under these conditions.
The issue of kinetic analyses of these catalytic reactions and structure determination of the deuterium labeled products is not trivial. The common chromatographic methods, such as HPLC, used to monitor protein-catalyzed organic reactions that are carried out at very low concentrations, are not applicable to isotope exchange reactions. Work at low concentrations, at the range of the antibody's Km, is required in order to establish the kinetic parameters of the antibody catalyzed reaction. Consequently, alternative methods such as mass spectrometry and NMR are required. For NMR spectroscopy, deuterated substrates were used and the exchange of ^2H and ^1H was followed by ^1H-NMR. This allows for monitoring the reaction in real time in the presence of antibody and buffer solution. The experiments were carried out in relatively high substrate concentrations, due to the limited sensitivity of the instrument. Most experiments employed deuterated acetonitrile as an internal standard that enables one to quantify the results. It will be appreciated that the employment of NMR techniques is valuable not only for kinetic studies but also for determining the product's stereochemistry as well as the regio, chemo- and enantioselectivity of the reaction.
All reactions were carried out in D2O under neutral conditions (pD 7.4) in the presence of catalytic amounts of the commercially available 38C2 antibody.
The exchange reaction was followed either by mass spectrometry (GCMS.) or by ^1H-NMR. The high sensitivity of the GCMS method with respect to substrate concentration allowed for determination of the kinetic parameters of these reactions (Km and kcat) using Lineweaver-Burk analysis. These measurements are presented in Table 1 hereinunder and FIG. 5.
Although all NMR measurements were carried out under substrate saturation conditions (allowing only for determination of Vmax and kcat, Table 1, above), as further detailed hereinunder, this method provided useful information about the regioselectivity of the reaction in the cases of non-symmetrical ketones and chemoselectivity with polyfunctional carbonyl compounds.
14. The rate of the uncatalyzed reaction was determined by averaging the results of five experiments for each substrate. All reaction mixtures, containing the appropriate substrate (200 μM) and NaCl (0.1 M) in D2O (0.1 mL), were monitored by GCMS-CI. Approximately 1-2% yield was observed after 5 months at 25° C.

CC(C)=O [Acetone, 1, Acetone]
kcat: 2.6 min⁻¹

CCCCCCCCCC=O [Decanal, 6, Decanal]
Km: 0.68 mM
kcat: 4.0 min⁻¹

CC(=O)C(C)(C)C [3,3-dimethylbutan-2-one]
reactivity in the 38C2-catalyzed deuterium exchange reaction (data not shown): absolute inertness

CC(=O)CC(C)=O [acetylacetone, reference compound]
inhibition of the 38C2-catalyzed deuterium exchange reaction (all cases studied by GCMS): effectively inhibited

O=C1CCCCC1 [Cyclohexanone, 9, Cyclohexanone]
Km: 5.2 mM
kcat: 194.0 min⁻¹
kcat/kun: 5.9 × 10^8

CCC(C)=O [Butanone, 2, Butanone]
kcat: 3.1 min⁻¹

CCCCC=O [Valeraldehyde, 4, Valeraldehyde]
kcat: 3.4 min⁻¹

CCOC(=O)CCCC(C)=O [Ethyl 5-oxohexanoate, 7, Ethyl 5-oxohexanoate]
kcat: 0.8 min⁻¹

O=C1CCCC1 [Cyclopentanone, 8, Cyclopentanone]
kcat: 6.1 min⁻¹

CCCCCC(C)=O [2-Heptanone, 3, 2-Heptanone]
Km: 16 mM
kcat: 3.5 min⁻¹
kcat/kun: 6.94 × 10^7

CCCCCCC=O [Heptanal, 5, Heptanal]
Km: 3.5 mM
kcat: 45.2 min⁻¹

O=C1CCCCCC1 [Cycloheptanone, 10, Cycloheptanone]
Km: 4.6 mM
kcat: 13.9 min⁻¹
kcat/kun: 1.1 × 10^8
